Read-outs that look alike come from different tables or passages of the source.

The target of one experiment is T1, Dα1/Dβ1/Dβ2 nAChR (Drosophila melanogaster, UniProt P04755+P09478+P25162).
T1 sequence (P09478 22-567): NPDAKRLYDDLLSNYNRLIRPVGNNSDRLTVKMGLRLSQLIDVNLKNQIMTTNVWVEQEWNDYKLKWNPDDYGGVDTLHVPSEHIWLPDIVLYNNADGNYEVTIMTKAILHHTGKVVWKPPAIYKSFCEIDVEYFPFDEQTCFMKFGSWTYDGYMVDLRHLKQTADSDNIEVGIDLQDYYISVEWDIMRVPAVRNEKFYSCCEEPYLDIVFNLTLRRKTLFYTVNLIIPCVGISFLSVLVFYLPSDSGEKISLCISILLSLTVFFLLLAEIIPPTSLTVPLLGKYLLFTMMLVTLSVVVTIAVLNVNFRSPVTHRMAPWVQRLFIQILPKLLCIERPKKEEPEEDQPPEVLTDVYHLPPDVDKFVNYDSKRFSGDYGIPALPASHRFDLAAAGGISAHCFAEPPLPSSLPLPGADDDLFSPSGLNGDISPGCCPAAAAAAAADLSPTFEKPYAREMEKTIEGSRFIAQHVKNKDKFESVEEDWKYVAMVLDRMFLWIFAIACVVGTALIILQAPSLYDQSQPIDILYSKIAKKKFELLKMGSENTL
T1 sequence (P04755 25-521): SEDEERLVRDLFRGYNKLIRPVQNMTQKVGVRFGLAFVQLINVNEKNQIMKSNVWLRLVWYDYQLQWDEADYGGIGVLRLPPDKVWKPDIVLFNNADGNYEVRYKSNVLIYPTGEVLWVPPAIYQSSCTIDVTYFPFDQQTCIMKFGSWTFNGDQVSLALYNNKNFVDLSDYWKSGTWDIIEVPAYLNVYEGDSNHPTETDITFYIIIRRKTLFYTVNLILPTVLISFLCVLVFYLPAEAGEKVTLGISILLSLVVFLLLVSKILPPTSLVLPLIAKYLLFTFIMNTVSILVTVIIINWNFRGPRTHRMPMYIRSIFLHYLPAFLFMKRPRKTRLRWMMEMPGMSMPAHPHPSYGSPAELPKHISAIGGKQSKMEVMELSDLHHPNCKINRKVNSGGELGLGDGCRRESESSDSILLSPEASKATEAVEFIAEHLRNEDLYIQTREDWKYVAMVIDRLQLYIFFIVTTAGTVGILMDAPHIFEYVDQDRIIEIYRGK
T1 sequence (P25162 19-519): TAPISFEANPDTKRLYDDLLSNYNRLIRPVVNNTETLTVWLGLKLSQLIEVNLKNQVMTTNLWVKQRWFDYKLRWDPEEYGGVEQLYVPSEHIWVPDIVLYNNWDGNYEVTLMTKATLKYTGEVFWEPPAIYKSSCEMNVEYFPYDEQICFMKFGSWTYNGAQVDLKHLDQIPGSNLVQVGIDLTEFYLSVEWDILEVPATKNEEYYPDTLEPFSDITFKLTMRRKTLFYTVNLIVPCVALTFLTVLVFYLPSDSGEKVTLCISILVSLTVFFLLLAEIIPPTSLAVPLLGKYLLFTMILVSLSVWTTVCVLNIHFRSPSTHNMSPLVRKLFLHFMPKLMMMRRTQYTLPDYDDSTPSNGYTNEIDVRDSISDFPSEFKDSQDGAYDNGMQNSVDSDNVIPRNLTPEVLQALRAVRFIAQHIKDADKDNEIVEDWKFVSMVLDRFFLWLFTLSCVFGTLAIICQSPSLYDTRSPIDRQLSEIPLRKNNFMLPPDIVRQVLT
Put plainly: cell-based. The arrangement: species or system Xenopus laevis oocytes. To be noted: Oocyte.

Experiment [1] deals with Amα1/Amα2/Amα8/Amβ1 nAChR (Apis mellifera, UniProt A0A7M7MMZ9+A0A8U0WQ70+A0A8U0WQC0+A0A8U0WQD1). Put plainly: cell-based. The arrangement: species or system Xenopus laevis oocytes. To be noted: Oocyte.
Chain of Amα1/Amα2/Amα8/Amβ1 nAChR (A0A7M7MMZ9 44-627): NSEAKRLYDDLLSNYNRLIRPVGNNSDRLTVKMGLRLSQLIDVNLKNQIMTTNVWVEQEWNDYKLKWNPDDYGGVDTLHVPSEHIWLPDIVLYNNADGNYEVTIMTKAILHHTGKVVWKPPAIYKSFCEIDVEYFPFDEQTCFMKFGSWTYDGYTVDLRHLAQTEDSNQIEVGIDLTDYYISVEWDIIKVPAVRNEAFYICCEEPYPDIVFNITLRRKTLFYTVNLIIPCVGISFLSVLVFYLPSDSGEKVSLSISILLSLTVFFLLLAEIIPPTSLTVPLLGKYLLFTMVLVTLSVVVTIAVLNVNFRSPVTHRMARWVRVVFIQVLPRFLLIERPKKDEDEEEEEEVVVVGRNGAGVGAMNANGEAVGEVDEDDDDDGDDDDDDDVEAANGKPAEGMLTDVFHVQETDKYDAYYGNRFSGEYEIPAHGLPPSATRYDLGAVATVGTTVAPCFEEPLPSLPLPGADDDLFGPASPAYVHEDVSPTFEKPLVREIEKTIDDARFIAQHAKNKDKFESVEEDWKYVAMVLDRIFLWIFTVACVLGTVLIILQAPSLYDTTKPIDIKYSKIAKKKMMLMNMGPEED
Chain of Amα1/Amα2/Amα8/Amβ1 nAChR (A0A8U0WQD1 18-541): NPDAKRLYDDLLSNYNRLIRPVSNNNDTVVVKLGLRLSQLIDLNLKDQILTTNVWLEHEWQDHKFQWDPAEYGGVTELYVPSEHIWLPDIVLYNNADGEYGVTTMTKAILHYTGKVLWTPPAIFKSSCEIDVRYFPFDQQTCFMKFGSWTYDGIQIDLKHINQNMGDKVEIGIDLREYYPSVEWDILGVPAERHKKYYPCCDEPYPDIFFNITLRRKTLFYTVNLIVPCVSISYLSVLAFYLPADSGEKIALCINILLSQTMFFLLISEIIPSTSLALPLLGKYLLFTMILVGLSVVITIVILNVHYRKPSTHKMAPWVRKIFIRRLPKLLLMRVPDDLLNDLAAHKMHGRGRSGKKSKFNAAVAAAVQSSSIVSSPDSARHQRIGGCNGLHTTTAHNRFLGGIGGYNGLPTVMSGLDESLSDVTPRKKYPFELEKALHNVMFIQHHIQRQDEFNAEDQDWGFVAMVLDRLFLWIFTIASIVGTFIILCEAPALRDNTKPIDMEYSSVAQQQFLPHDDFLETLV
Chain of Amα1/Amα2/Amα8/Amβ1 nAChR (A0A8U0WQ70 25-537): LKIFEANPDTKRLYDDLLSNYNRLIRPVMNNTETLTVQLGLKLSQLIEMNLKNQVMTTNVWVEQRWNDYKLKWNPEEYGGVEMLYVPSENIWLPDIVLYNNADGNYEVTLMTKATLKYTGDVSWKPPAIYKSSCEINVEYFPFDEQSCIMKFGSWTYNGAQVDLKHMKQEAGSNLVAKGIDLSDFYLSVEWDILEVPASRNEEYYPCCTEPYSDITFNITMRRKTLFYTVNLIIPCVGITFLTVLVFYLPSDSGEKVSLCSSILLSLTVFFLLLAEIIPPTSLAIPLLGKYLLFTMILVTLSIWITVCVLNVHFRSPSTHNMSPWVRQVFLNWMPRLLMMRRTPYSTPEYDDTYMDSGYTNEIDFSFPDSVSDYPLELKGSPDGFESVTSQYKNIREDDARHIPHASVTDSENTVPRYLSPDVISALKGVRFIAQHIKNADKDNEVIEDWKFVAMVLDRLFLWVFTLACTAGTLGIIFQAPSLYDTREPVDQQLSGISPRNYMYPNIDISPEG
Chain of Amα1/Amα2/Amα8/Amβ1 nAChR (A0A8U0WQC0 25-520): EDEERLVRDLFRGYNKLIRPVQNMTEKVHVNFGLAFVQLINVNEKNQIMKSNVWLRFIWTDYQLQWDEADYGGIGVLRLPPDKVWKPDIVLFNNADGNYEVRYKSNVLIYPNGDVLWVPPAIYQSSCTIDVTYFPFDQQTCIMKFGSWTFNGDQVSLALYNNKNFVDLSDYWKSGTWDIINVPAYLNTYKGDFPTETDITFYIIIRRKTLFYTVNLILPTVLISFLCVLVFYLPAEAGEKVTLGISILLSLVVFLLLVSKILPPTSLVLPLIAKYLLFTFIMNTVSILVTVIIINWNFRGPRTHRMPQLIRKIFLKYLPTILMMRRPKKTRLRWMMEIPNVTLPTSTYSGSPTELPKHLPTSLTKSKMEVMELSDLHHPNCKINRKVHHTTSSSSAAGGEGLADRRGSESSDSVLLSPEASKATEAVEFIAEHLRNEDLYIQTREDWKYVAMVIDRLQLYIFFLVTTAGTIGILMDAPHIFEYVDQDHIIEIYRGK

As to `CN/C(=N\[N+](=O)[O-])NCc1cnc(Cl)s1` [clothianidin], the Emax on Dα1/Dβ1/Dβ2 nAChR (read-out: Clothianidin / Imax / ND) was 41.1 ± 1.1%; in experiment [1] (read-out: Clothianidin / Imax), 76.6 ± 2.4%.

As to `O=[N+]([O-])NC1=NCCN1Cc1ccc(Cl)nc1` [imidacloprid], the Emax is 24.4 ± 2.2% on Dα1/Dβ1/Dβ2 nAChR (read-out: Imidacloprid / Imax) and 7 ± 0.5% in experiment [1] (read-out: Imidacloprid / Imax).

As to `N#C/N=C1\SCCN1Cc1ccc(Cl)nc1` [thiacloprid], the Emax on Dα1/Dβ1/Dβ2 nAChR (read-out: Thiacloprid / Imax) was determined as 5.6 ± 0.5%; in experiment [1] (read-out: Thiacloprid / Imax), 3.7 ± 0.3%.
